Measurements: ChEMBL document CHEMBL5257144, “Novel Serine-Arginine Protein Kinase Inhibitors for Treating Cancer” (ACS Med Chem Lett, 2023)
pIC50: −log10 of the molar value.

Target: SRSF protein kinase 1 (Homo sapiens, UniProt Q96SB4)
Assay: Inhibition of SRPK1 (unknown origin) using RS peptide as substrate incubated for 120 mins in the presence 33P-ATP

Sequence of SRSF protein kinase 1 (Q96SB4 whole entry): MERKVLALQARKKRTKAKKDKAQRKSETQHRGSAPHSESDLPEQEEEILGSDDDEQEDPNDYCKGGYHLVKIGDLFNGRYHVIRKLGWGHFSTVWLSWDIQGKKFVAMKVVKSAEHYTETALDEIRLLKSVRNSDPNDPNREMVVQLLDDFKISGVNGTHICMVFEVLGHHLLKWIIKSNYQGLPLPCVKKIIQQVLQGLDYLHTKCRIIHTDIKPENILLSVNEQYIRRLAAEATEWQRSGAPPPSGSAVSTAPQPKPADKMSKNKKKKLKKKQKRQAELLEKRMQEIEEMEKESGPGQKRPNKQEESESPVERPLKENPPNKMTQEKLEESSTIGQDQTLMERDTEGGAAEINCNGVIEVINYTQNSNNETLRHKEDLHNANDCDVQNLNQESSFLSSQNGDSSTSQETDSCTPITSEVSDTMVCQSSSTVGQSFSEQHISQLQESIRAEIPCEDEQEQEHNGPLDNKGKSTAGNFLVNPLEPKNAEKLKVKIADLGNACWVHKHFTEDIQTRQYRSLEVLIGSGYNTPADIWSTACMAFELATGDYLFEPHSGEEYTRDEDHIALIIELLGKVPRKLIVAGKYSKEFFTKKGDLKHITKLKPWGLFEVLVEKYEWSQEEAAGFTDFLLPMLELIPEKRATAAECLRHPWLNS

pIC50	SMILES
> 7.30	CN(c1ncccc1CNc1cnc(-c2nc3cc(-c4cnn(C)c4)ccc3[nH]2)nc1)S(C)(=O)=O
> 7.30	Cc1ccc2nc(-c3ncc(NCc4cccnc4N(C)S(C)(=O)=O)cn3)[nH]c2c1
> 7.30	CN(c1ncccc1CNc1ccc(-c2nc3cc(Cl)ccc3[nH]2)nc1)S(C)(=O)=O

Continued, molecule first:

SMILES	pIC50
CN(c1ncccc1CNc1cnc(-c2nc3cc(Cl)cc(F)c3[nH]2)nc1)S(C)(=O)=O	> 7.30
CN(c1ncccc1CNc1cnc(-c2nc3cc(F)cc(F)c3[nH]2)nc1)S(C)(=O)=O	> 7.30
CC(C)c1ccc2[nH]c(-c3ncc(NCc4cccnc4N(C)S(C)(=O)=O)cn3)nc2c1	> 7.30
